Experimental data from the NIST ThermoML archive (doi:10.1021/je050116g).

Key:
[1] = relative permittivity at various frequencies (dimensionless); xn = mol fraction of the nth substance listed; conditions: 298.15 K, 101.33 kPa, Liquid, Frequency=0.03 MHz, Parallel plate capacitor
[2] = xn = mol fraction of the nth substance listed; conditions: 298.15 K, 101.33 kPa, Liquid
[3] = 298.15 K; 101.33 kPa; Liquid

CCCCCCCCCCCC [dodecane] + CO
Conditions	mass density [kg/m3]	relative permittivity
[1], x2 = 0.000771	–	2.00822
[1], x2 = 0.001621	–	2.00927
[1], x2 = 0.00274	–	2.01066
[1], x2 = 0.003489	–	2.01159
[1], x2 = 0.004562	–	2.01293
[1], x2 = 0.005874	–	2.01448
[1], x2 = 0.008056	–	2.01694
[1], x2 = 0.01061	–	2.01951
[1], x2 = 0.0131	–	2.02187
[1], x2 = 0.01491	–	2.0235
[1], x2 = 0.01897	–	2.02697
[1], x2 = 0.02456	–	2.03155
[1], x2 = 0.03063	–	2.03644
[1], x2 = 0.03798	–	2.04263
[1], x2 = 0.04663	–	2.05023
[1], x2 = 0.05524	–	2.05834
[1], x2 = 0.06621	–	2.06954
[1], x2 = 0.08007	–	2.08561
[2], x2 = 0.00135	745.406	–
[2], x2 = 0.00185	745.4	–
[2], x2 = 0.00406	745.379	–
[2], x2 = 0.00925	745.332	–
[2], x2 = 0.01113	745.324	–
[2], x2 = 0.01828	745.284	–
[2], x2 = 0.02969	745.265	–
[2], x2 = 0.0464	745.259	–
[2], x2 = 0.0642	745.271	–
[2], x2 = 0.08321	745.289	–
[2], x2 = 0.09518	745.306	–

CCO [ethanol]
Conditions	mass density [kg/m3]
[3]	785.055

CCCCCCCO [heptan-1-ol]
Conditions	mass density [kg/m3]
[3]	818.746

CCCCCCCO [heptan-1-ol] + CCCCCCCCCCCC
Conditions	mass density [kg/m3]	relative permittivity
[1], x1 = 0.000586	–	2.00786
[1], x1 = 0.001199	–	2.00865
[1], x1 = 0.001873	–	2.00953
[1], x1 = 0.002621	–	2.01049
[1], x1 = 0.003507	–	2.01164
[1], x1 = 0.004712	–	2.01319
[1], x1 = 0.006033	–	2.01489
[1], x1 = 0.007493	–	2.0167
[1], x1 = 0.009131	–	2.01867
[1], x1 = 0.01103	–	2.02082
[1], x1 = 0.01345	–	2.02338
[1], x1 = 0.01639	–	2.02628
[1], x1 = 0.02108	–	2.03055
[1], x1 = 0.02571	–	2.03449
[1], x1 = 0.03171	–	2.03943
[1], x1 = 0.0379	–	2.0444
[1], x1 = 0.04415	–	2.0494
[1], x1 = 0.0517	–	2.05543
[1], x1 = 0.06004	–	2.06219
[1], x1 = 0.07079	–	2.07111
[1], x1 = 0.08135	–	2.08016
[1], x1 = 0.09339	–	2.09089
[1], x1 = 0.1085	–	2.10505
[2], x1 = 0.00183	745.491	–
[2], x1 = 0.00384	745.55	–
[2], x1 = 0.00719	745.657	–
[2], x1 = 0.01509	745.934	–
[2], x1 = 0.02602	746.357	–
[2], x1 = 0.03537	746.74	–
[2], x1 = 0.04943	747.341	–
[2], x1 = 0.06486	748.019	–
[2], x1 = 0.08181	748.778	–
[2], x1 = 0.1023	749.709	–

CCCCCCO [hexan-1-ol]
Conditions	mass density [kg/m3]
[3]	815.275

CCCCCCO [hexan-1-ol] + CCCCCCCCCCCC
Conditions	mass density [kg/m3]	relative permittivity
[1], x1 = 0.000504	–	2.00799
[1], x1 = 0.001087	–	2.00873
[1], x1 = 0.001795	–	2.00963
[1], x1 = 0.002783	–	2.01089
[1], x1 = 0.004043	–	2.0125
[1], x1 = 0.005459	–	2.0143
[1], x1 = 0.006744	–	2.0159
[1], x1 = 0.008507	–	2.01802
[1], x1 = 0.01046	–	2.02024
[1], x1 = 0.01278	–	2.02269
[1], x1 = 0.01656	–	2.02639
[1], x1 = 0.02	–	2.02952
[1], x1 = 0.02535	–	2.03412
[1], x1 = 0.03116	–	2.03887
[1], x1 = 0.03741	–	2.04388
[1], x1 = 0.04472	–	2.0497
[1], x1 = 0.05324	–	2.05652
[1], x1 = 0.06176	–	2.06346
[1], x1 = 0.07197	–	2.072
[1], x1 = 0.08324	–	2.08177
[1], x1 = 0.0941	–	2.09164
[1], x1 = 0.1052	–	2.10222
[2], x1 = 0.00175	745.477	–
[2], x1 = 0.0046	745.539	–
[2], x1 = 0.00826	745.625	–
[2], x1 = 0.01788	745.888	–
[2], x1 = 0.02646	746.157	–
[2], x1 = 0.03537	746.455	–
[2], x1 = 0.04959	746.947	–
[2], x1 = 0.0656	747.525	–
[2], x1 = 0.07934	748.03	–
[2], x1 = 0.09708	748.704	–

CO [methanol]
Conditions	mass density [kg/m3]
[3]	786.538

CCCCCCCCCO [nonan-1-ol]
Conditions	mass density [kg/m3]
[3]	824.263

CCCCCCCCCO [nonan-1-ol] + CCCCCCCCCCCC
[2]
Conditions	mass density [kg/m3]
x1 = 0.00099	745.467
x1 = 0.0047	745.637
x1 = 0.00777	745.786
x1 = 0.01456	746.133
x1 = 0.02651	746.79
x1 = 0.03533	747.291
x1 = 0.05117	748.212
x1 = 0.06465	749.011
x1 = 0.08043	749.97
x1 = 0.09832	751.064

CCCCCCCCO [octan-1-ol]
Conditions	mass density [kg/m3]
[3]	821.694

CCCCCCCCO [octan-1-ol] + CCCCCCCCCCCC
Conditions	mass density [kg/m3]	relative permittivity
[1], x1 = 0.000468	–	2.00782
[1], x1 = 0.000994	–	2.0085
[1], x1 = 0.00174	–	2.00946
[1], x1 = 0.002707	–	2.0107
[1], x1 = 0.003781	–	2.01209
[1], x1 = 0.005049	–	2.01375
[1], x1 = 0.006519	–	2.01566
[1], x1 = 0.008207	–	2.01774
[1], x1 = 0.009844	–	2.01966
[1], x1 = 0.01266	–	2.02275
[1], x1 = 0.01671	–	2.02679
[1], x1 = 0.02183	–	2.03146
[1], x1 = 0.02777	–	2.03652
[1], x1 = 0.03323	–	2.04101
[1], x1 = 0.0398	–	2.04628
[1], x1 = 0.04865	–	2.05338
[1], x1 = 0.05937	–	2.06205
[1], x1 = 0.06843	–	2.06953
[1], x1 = 0.0778	–	2.07741
[1], x1 = 0.08823	–	2.08648
[1], x1 = 0.09795	–	2.0952
[1], x1 = 0.111	–	2.10743
[2], x1 = 0.00204	745.513	–
[2], x1 = 0.00419	745.594	–
[2], x1 = 0.00734	745.718	–
[2], x1 = 0.01454	746.026	–
[2], x1 = 0.02591	746.56	–
[2], x1 = 0.03144	746.83	–
[2], x1 = 0.04912	747.72	–
[2], x1 = 0.06408	748.489	–
[2], x1 = 0.08146	749.394	–
[2], x1 = 0.1014	750.468	–

CCCCCO [pentan-1-ol]
Conditions	mass density [kg/m3]
[3]	810.883

CCCO [propan-1-ol]
Conditions	mass density [kg/m3]
[3]	799.564
